# Test results from patent publication US20250057791A1, “PROTECTION AGAINST ARTHROPOD PARASITES WITH PURINERGIC RECEPTOR (OPR) ANTAGONISTS” (priority 2021, published 2025).
# Several values for one entry are separate records, joined by “and”; a condition that tells them apart may be missing. Equal entries are not always repeated.
# Key:
# [1] = tested on: A. stephensi; assay: Membrane feeding assay, A. stephensi; type: in vivo, Anopheles stephensi; details: for effect on feeding on solution containing ATP, in words: doses as in Table 8
# Description: (§1) Experiments with A. gambiae and A. stephensi were made in a climate chamber at 28° C. and 80% RH during the last 6 hours of scotophase. As a sugar meal can interfere with the blood meal by reducing the number of females that feed, the sucrose solution supplied in rearing cages to mosquitoes employed for feeding experiments was reduced to 5%. […] The 5% sucrose solution was presented to mosquitoes from emergence on four 1 cm diam. cotton dental rolls (Hartmann A G, Neuhausen, Switzerland) inserted in 10 ml upturned glass vials placed in holes at each corner of the rearing cage ceiling. Cotton rolls were turned daily in vials and renewed every two days. Mosquitoes were not fed blood and were deprived of sucrose 17 to 20 hours before experiments. Thirty min before a feeding experiment, between 10-25, 6-day-old females that responded to activation by human breath were removed with a mouth aspirator from the rearing cage wall and placed in polystyrol cylinders with the floor cut out (10 cm dm×15 cm high; Semadeni, Ostermundigen, Switzerland) that served as feeding cages. Each cage was covered with mosquito netting at one end and a soft polyurethane lid at the other.
# (§2) Mosquitoes were fed for 30 min using a feeding system (Hemotek®, Hemotek Ltd, Blackburn, UK) consisting of 3.5 ml stainless steel reservoirs 37 mm in diameter covered with a 60-90 μm thick silicone-impregnated membrane (Kröber and Guerin, 2007 in “Feeding assays for hard ticks”, Trends in parasitology 23, 445-449; doi 10.1016/j.pt.2007.07.010). Feeding reservoirs reached a temperature of 37° C. within 10 min and were placed on the netting of feeding cages. Mosquitoes were activated using a 200 ms pulse of pure CO2 (volume 6.25 ml) from a pressurised cylinder (Carbagas, Switzerland) using a solenoid valve that caused the CO2 level in the feeding cage to rise to at least 1,500 ppm. Between 3 and 4 sets of 10 feeding cages held in a custom-built Ertacetal® POM frame were tested per day, depending of the number of female mosquitoes available from the colony.
# All compounds were tested in a mosquito feeding solution (FS) consisting of 25 mM dextrose, 25 mM NaCl buffered with 8.93 mM NaHCO3 adjusted to pH 7.4. Feeding responses of A. gambiae and A. stephensi to ATP as a function of dose were tested with between 7 to 10 feeding cages per dose. Each feeding experiment with an antagonist systematically included a treatment containing the FS as negative control along with a treatment containing the FS […] These positive and negative controls permitted to monitor any effect of experimental day on feeding responses as a function of dose for antagonists that were recorded over several days. […] Four to 10 cages each with 10 to 29 mosquitoes were tested per antagonist dose. […] The number of feeding cages used to test other compounds and their mixtures as feeding stimulants or as feeding inhibitors is listed on Table 6. The percentage of fed mosquitoes was estimated by visual inspection of abdominal distention that is indicative of engorgement.
# (§3) Pairwise comparisons of A. gambiae electrophysiological (EP) responses to ATP and adenosine alone and combined with a given dose of PR antagonist, EP responses to ATP alone and combined with a given dose of a metal modulator, and EP responses to ATP prior to and after exposure of a sensillum to a given dose of a PR antagonist were made with a one-tailed Wilcoxon signed-rank test for data showing a non-normal distribution, with a paired Student's t-test for normally distributed data showing homogeneous variance and with a Welch's t-test for normally distributed data showing non-homogeneous variance. […]
# [2] = tested on: A. gambiae; assay: Membrane feeding assay, A. gambiae; type: in vivo, Anopheles gambiae; details: for effect on feeding on solution containing ATP, in words: 20 μM ATP, CPT at 10 μM; for ID95 in μM (±s.e.m.): feeding on 20 μM ATP in the feeding solution
# Description: as §1, §2
# All compounds were tested in a mosquito feeding solution (FS) consisting of 25 mM dextrose, 25 mM NaCl buffered with 8.93 mM NaHCO3 adjusted to pH 7.4. Feeding responses of A. gambiae and A. stephensi to ATP as a function of dose were tested with between 7 to 10 feeding cages per dose. Each feeding experiment with an antagonist systematically included a treatment containing the FS as negative control along with a treatment containing the FS with […] added as positive control for A. gambiae and with […] added as positive control for A. stephensi. These positive and negative controls permitted to monitor any effect of experimental day on feeding responses as a function of dose for antagonists that were recorded over several days. […] Four to 10 cages each with 10 to 29 mosquitoes were tested per antagonist dose. […] The number of feeding cages used to test other compounds and their mixtures as feeding stimulants or as feeding inhibitors is listed on Table 6. The percentage of fed mosquitoes was estimated by visual inspection of abdominal distention that is indicative of engorgement.
# as §3
compound,measurement,setting,value
"O=C(O)c1cc(C(=O)O)c(C(=O)N(Cc2cccc(Oc3ccccc3)c2)[C@H]2CCCc3ccccc32)cc1C(=O)O [A-317491, 5-[(3-phenoxyphenyl)methyl-[(1S)-1,2,3,4-tetrahydronaphthalen-1-yl]carbamoyl]benzene-1,2,4-tricarboxylic acid]",% Fed females (mean ± s.e.m.),"[1]; 0.08 μM, feeding solution with 160 μM ATP",29.68 ± 7.14%
same,inhibition at 0.08 µM,"[1]; Anopheles stephensi, 0.08 μM, Abbott's formula",59.3%
same,"effect on feeding on solution containing ATP, in words",[1],inhibited feeding
same,"effect on feeding on solution containing ATP, in words",[2],inhibited feeding
same,"% fed mosquitoes (mean ± s.e.m.), ATP + antagonist",[2]; antagonist 1 nM + 20 μM ATP,43.71%
"Nc1ncnc2c1ncn2[C@@H]1O[C@H](COP(=O)(O)OP(=O)(O)OP(=O)(O)O)[C@@H](O)[C@H]1O [ATP, Adenosine 5′-triphosphate]",% Fed females (mean ± s.e.m.),"[1]; ATP 160 μM, positive control",72.96 ± 5.9%
same,"ED95, feeding stimulant",[1]; feeding as a function of dose,160 µM
same,"% fed mosquitoes (mean ± s.e.m.), ATP [20 μM]","[2]; 20 μM ATP alone, positive control of the antagonist",66.12% and 65.96% and 64.49% and 69.12% and 69.68% and 64.2% and 70.2% and 67.6%
same,% Engorged mosquitoes,[2]; 20 μM in feeding solution,67.5 ± 2.1%
same,% feeding at the ED95,[2]; 22.5 μM ATP,68.15%
same,% mosquitoes fed at the asymptote,[2]; 45 μM ATP,70.25%
same,asymptote dose of feeding response,[2]; dose dependent feeding,45 µM
same,"ED95, feeding stimulant",[2]; dose dependent feeding on feeding solution,22.5 µM
Cc1ccc(C(=O)Nc2ccc(S(=O)(=O)O)c3cc(S(=O)(=O)O)cc(S(=O)(=O)O)c23)cc1NC(=O)c1cccc(NC(=O)Nc2cccc(C(=O)Nc3cc(C(=O)Nc4ccc(S(=O)(=O)O)c5cc(S(=O)(=O)O)cc(S(=O)(=O)O)c45)ccc3C)c2)c1 [Suramin],% Fed females (mean ± s.e.m.),"[1]; 80 μM, feeding solution with 160 μM ATP",30.04 ± 7.75%
same,inhibition at 80 µM,"[1]; Anopheles stephensi, 80 μM, Abbott's formula",58.8%
same,"% fed mosquitoes (mean ± s.e.m.), ATP + antagonist",[2]; antagonist 1 μM + 20 μM ATP,34.86%
same,ID95 in μM (±s.e.m.),[2],1.36 µM
"Cc1nc(C)c(C)nc1C [TMP, 2,3,5,6-tetramethylpyrazine]",% Fed females (mean ± s.e.m.),"[1]; 0.8 μM, feeding solution with 160 μM ATP",26.67 ± 2.98%
same,inhibition at 0.8 µM,"[1]; Anopheles stephensi, 0.8 μM, Abbott's formula",63.5%
same,"effect on feeding on solution containing ATP, in words",[1],inhibited feeding
same,% Engorged mosquitoes,[2]; 7.5 μM TMP + 20 μM ATP + 200 μM Adenosine,36.7 ± 6.0%
same,"effect on feeding on solution containing ATP, in words",[2],inhibited feeding
same,"% fed mosquitoes (mean ± s.e.m.), ATP + antagonist",[2]; antagonist 10 nM + 20 μM ATP,50.47%
same,ID95 in μM (±s.e.m.),[2],1.28 µM
